# Experimental data as given in article doi:10.1101/2023.10.24.563163v2, “Targeting cancer with small molecule pan-KRAS degraders” (biorxiv, 2024).
# What was measured:
# [1] = biological target: T1, KRAS (Homo sapiens, UniProt P01116, C118S/G12V); experiment: biochemical; parameters: SPR binary and ternary complex binding affinity and kinetics; conditions: GDP-bound; read-out: SPR KRAS^G12V GDP KD
# T1 construct: residues 1-169, C118S background; His6 tag removed, E. coli; biotinylated for SPR
# Source text: (§1) With the objective of identifying molecules that potently degrade multiple KRAS mutants we next sought to employ structure-based design using the solved ternary co-crystal structure of compound 3 to improve ternary complex stability and intracellular VHL engagement. […] Analysis of the VCB:compound 3:KRAS^G12V co-crystal structure (Fig. 1H) highlighted an opportunity to enhance interactions within the ternary complex by improving π-stacking between the exit vector amide of the VHL ligand and Tyr112. We therefore switched the amide for an isoxazole, which has been previously reported to improve VCB affinity in this position in other contexts ([22]), yielding compound 4 (Fig. 2A). A ternary complex co-crystal structure of VCB:compound 4:KRAS^G12V (PDB 8QW7) confirmed a consistent overall binding mode to that observed for compound 3 (RMSD = 0.72 Å), with compound 4 able to engage in π-stacking interaction between the isoxazole and Tyr112 of VCB as designed (Fig. 2B). […] FP, SPR and cellular target engagement studies support a minor improvement in binary VHL engagement for compound 4, with moderate cooperativity retained (fig. S2A-C, table S1). […] We then investigated the impact of these structural changes on degradation kinetics in live HiBiT-tagged GP5d cells (fig. S3A-D). […] Aiming to measure ternary complex stability, we noted that the FP assay reached the limits of quantification due to ternary KD approaching that of the assay probe (fig. S8B).
# [2] = biological target: T2, KRAS^G12D GDP (Homo sapiens, UniProt P01116, C118S/G12D); experiment: biochemical; parameters: SPR binary and ternary complex binding affinity and kinetics; conditions: GDP-bound; read-out: SPR KRAS^G12D GDP KD
# T2 construct: residues 1-169, C118S background
# T2 sequence (P01116 whole entry G12D/C118S, the tested form may be a part): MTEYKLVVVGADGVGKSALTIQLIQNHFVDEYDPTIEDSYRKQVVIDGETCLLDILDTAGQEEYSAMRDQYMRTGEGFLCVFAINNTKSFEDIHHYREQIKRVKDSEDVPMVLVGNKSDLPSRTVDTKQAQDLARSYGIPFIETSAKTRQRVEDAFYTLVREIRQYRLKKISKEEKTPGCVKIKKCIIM
# Source text: as §1
# [3] = biological target: T3, VHL:EloC:EloB (VCB) complex (Homo sapiens, UniProt P40337); experiment: biochemical; parameters: SPR binary and ternary complex binding affinity and kinetics; conditions: SPR, binary
# T3 construct: VHL 54-213 (His6 tag removed by TEV), EloC 17-112, EloB 1-104 co-expressed in E. coli; heterotrimer; with Elongin-C; Elongin-B
# T3 sequence (Q15369 17-112): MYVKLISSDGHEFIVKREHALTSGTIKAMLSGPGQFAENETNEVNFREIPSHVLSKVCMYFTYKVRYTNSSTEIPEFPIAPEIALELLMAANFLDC
# T3 sequence (Q15370 1-104, further chain): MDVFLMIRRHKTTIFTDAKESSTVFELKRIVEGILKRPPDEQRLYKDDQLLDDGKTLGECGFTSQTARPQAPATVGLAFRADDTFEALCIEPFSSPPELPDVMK
# T3 sequence (P40337 54-213): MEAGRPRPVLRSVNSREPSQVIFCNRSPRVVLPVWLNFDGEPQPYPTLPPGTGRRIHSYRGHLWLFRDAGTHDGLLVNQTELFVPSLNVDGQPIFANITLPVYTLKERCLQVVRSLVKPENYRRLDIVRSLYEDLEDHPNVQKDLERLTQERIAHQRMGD
# Source text: as §1
# [4] = tested on: GP2d; experiment: cells; parameters: DUSP6 modulation; conditions: GP2d, 6 h; read-out: IC50 DUSP6
# Source text: (§2) Next, we set out to test the ability of a single pan-KRAS degrading molecule, compound 4, to selectively suppress oncogenic signaling and proliferation in cancer cell lines driven by diverse KRAS mutants. To this end, we first confirmed degradation of KRAS by compound 4 in KRAS-dependent (GP2d, SW620 and NCI-H358 expressing KRAS^G12D, - G12V or -G12C, respectively) as well as in KRAS independent (A-375, HEK293) cell lines (Fig. 3A, fig. S4A). […] Both inhibition and degradation repressed the established markers of MAPK signaling pERK (fig. S4B-D) and DUSP6 (Fig. 3B, fig. S4E) in KRAS dependent cell lines. […] Neither degradation nor inhibition had appreciable antiproliferative effects in the KRAS independent cell lines A-375 and HEK293 (Fig. 3C, fig. S4F).
# [5] = tested on: NCI-H358; experiment: cells; parameters: DUSP6 modulation; conditions: Homo sapiens, NCI-H358, 6 h; read-out: IC50 DUSP6
# Source text: as §2
# [6] = tested on: SW620; experiment: cells; parameters: DUSP6 modulation; conditions: Homo sapiens, SW-620, 6 h; read-out: IC50 DUSP6
# Source text: as §2
# [7] = biological target: KRAS^G12C (Homo sapiens, UniProt P01116, G12C); experiment: cell-based; parameters: endogenous; KRAS degradation by capillary electrophoresis immunodetection; conditions: NCI-H358; read-out: Dmax 24 h NCI-H358 [%]
# KRAS^G12C, sequence (P01116 whole entry G12C): as the sequence (P01116 whole entry G12D/C118S, the tested form may be a part) above, with D12C, S118C counted along it
# Procedure: Protein Detection by Capillary Electrophoresis Cells (50 000) were seeded the day before treatment into 96-well clear-flat bottom plates and incubated overnight (37 °C, humidified tissue culture incubator, 5% CO2). Compounds were added from DMSO stock solution using a digital dispenser and cells are incubated at 37 °C as specified (24 hours for KRAS degradation, 6 hours for determination of pERK levels). At the end of the incubation, medium was removed, cells washed with ice cold PBS, PBS removed and 50 µL lysis buffer (Meso Scale Discovery #R60TX-2) supplemented with 1:100 protease inhibitor solution, 1:100 phosphatase inhibitor I, 1:100 phosphatase inhibitor II (Meso Scale Discovery #R70AA-1), 0.5 µL/mL Benzonase (Novagen #70664-3) and 10 mM dithiothreitol added to each well. Plates with lysis buffer were immediately transferred to -80 °C freezer for at least 2 hours and then thawed on ice. Lysates were transferred to a 96 well V-bottom plate and insoluble debris was pelleted by centrifugation for 20 min. at 4 000 rpm. 40 µL of the supernatant were transferred to a fresh Eppendorf PCR plate. Analysis of protein levels was conducted using the Wes System, ProteinSimple (https://www.bio-techne.com/) as specified by the manufacturer. Briefly, Wes Master Mix (12-230 kDa WES Separation Module, 8 × 25 capillary cartridges, ProteinSimple #SM-W004) and molecular weight markers were prepared as specified in the manufacturer’s recommendations. To detect primary antibodies, anti-rabbit (Protein Simple #DM-001) or anti-mouse (Protein Simple #DM-002) detection modules were used. 7.2 µL lysate + 1.8 µL master mix were combined and heated to 95 °C for 5 min. […] Next, we set out to test the ability of a single pan-KRAS degrading molecule, compound 4, to selectively suppress oncogenic signaling and proliferation in cancer cell lines driven by diverse KRAS mutants. To this end, we first confirmed degradation of KRAS by compound 4 in KRAS-dependent (GP2d, SW620 and NCI-H358 expressing KRAS^G12D, - G12V or -G12C, respectively) as well as in KRAS independent (A-375, HEK293) cell lines (Fig. 3A, fig. S4A). […] Both inhibition and degradation repressed the established markers of MAPK signaling pERK (fig. S4B-D) and DUSP6 (Fig. 3B, fig. S4E) in KRAS dependent cell lines. […] Neither degradation nor inhibition had appreciable antiproliferative effects in the KRAS independent cell lines A-375 and HEK293 (Fig. 3C, fig. S4F).
# T1 sequence (P01116 1-169 G12V/C118S): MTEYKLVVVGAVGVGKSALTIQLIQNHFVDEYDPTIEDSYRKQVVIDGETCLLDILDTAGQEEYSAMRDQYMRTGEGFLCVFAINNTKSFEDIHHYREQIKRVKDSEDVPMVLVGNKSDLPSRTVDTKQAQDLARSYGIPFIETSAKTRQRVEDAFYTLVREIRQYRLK
Kd [1] [nM],Kd [2] [nM],kon ([3]; read-out: SPR VCB kon [1/(M s)]) [M⁻¹ s⁻¹],IC50 [4] [nM],IC50 [5] [nM],IC50 [6] [nM],Dmax [7] [%],Kd [3] [nM],SMILES
,,,245,138,429,< 25,,Cc1ncsc1-c1ccc(CNC(=O)C2CC(O)CN2C(=O)C(c2cc(OCCCCN3CCCN(c4nccc(-c5noc(C6(C)CCCc7sc(N)c(C#N)c76)n5)n4)C(C)C3)no2)C(C)C)cc1 (stereo not drawn) [compound 5]
8,11 ± 1,,3.3,11.4,6.2,86,,Cc1ncsc1-c1ccc(CNC(=O)[C@@H]2C[C@@H](O)CN2C(=O)[C@@H](c2cc(OCCCCN3CCCN(c4nccc(-c5noc([C@@]6(C)CCCc7sc(N)c(C#N)c76)n5)n4)[C@@H](C)C3)no2)C(C)C)cc1 [compound 4]
136 ± 1,240 ± 31,,,,,,737 ± 388,Cc1ncsc1-c1ccc(CNC(=O)[C@@H]2C[C@@H](O)CN2C(=O)[C@@H](NC(=O)COCCCN2CCCN(c3nccc(-c4noc([C@@]5(C)CCCc6sc(N)c(C#N)c65)n4)n3)[C@@H](C)C2)C(C)(C)C)cc1 [compound 2]

# Continued, compound first:
SMILES,Kd [1] [nM],Kd [2] [nM],kon ([3]; read-out: SPR VCB kon [1/(M s)]) [M⁻¹ s⁻¹],IC50 [4] [nM],IC50 [5] [nM],IC50 [6] [nM],Dmax [7] [%],Kd [3] [nM]
Cc1ncsc1-c1ccc(CNC(=O)[C@@H]2C[C@@H](O)CN2C(=O)[C@@H](NC(=O)CCCCCN2CCCN(c3nccc(-c4noc([C@@]5(C)CCCc6sc(N)c(C#N)c65)n4)n3)[C@@H](C)C2)C(C)(C)C)cc1 [compound 3],9 ± 1,13 ± 2,136000,129,248,205,81,
"Cc1ncsc1-c1ccc([C@H](CO)NC(=O)[C@@H]2C[C@@H](O)CN2C(=O)[C@H](C(C)C)n2cc(OCCCCN3CCCN(c4nccc(-c5noc([C@@]6(C)CCCc7sc(N)c(C#N)c76)n5)n4)[C@@H](C)C3)nn2)cc1 [compound 7, ACBI3]",,,,,,,,11.1 ± 0.3
